Source: ChEMBL document CHEMBL1799913, “A combined spectroscopic and crystallographic approach to probing drug-human serum albumin interactions” (Bioorg Med Chem, 2010)
≈ marks a conversion by molar mass, not a printed value.

Key:
[1] = biological target: T1, Albumin (Homo sapiens, UniProt P02768); conditions: isolated protein
Description: Binding affinity to fatty acid-free human serum albumin by equilibrium dialysis

[2] = Octanol-buffer partition coefficient, log D of the compound at pH 7.4 by shake-flask method
[3] = Lipophilicity, log P of the compound in octanol
[4] = biological target: T1, Albumin; conditions: isolated protein; remark: listed apart in the source
Description: Binding affinity to fatty acid-containing human serum albumin by equilibrium dialysis

[5] = Dissociation constant, pKa of the compound by spectrophotometric titration; format: physicochemical
[6] = physchem; conditions: phosphate buffer, pH 7.4
Description: Aqueous solubility of the compound in phosphate buffer solution of pH 7.4 after 24 hrs by LC-UV analysis

[7] = biological target: T2, human serum albumin site 1 (Homo sapiens, UniProt P02768); assay: in vitro; conditions: pH 7.4, probe warfarin
T2 sequence (P02768 whole entry): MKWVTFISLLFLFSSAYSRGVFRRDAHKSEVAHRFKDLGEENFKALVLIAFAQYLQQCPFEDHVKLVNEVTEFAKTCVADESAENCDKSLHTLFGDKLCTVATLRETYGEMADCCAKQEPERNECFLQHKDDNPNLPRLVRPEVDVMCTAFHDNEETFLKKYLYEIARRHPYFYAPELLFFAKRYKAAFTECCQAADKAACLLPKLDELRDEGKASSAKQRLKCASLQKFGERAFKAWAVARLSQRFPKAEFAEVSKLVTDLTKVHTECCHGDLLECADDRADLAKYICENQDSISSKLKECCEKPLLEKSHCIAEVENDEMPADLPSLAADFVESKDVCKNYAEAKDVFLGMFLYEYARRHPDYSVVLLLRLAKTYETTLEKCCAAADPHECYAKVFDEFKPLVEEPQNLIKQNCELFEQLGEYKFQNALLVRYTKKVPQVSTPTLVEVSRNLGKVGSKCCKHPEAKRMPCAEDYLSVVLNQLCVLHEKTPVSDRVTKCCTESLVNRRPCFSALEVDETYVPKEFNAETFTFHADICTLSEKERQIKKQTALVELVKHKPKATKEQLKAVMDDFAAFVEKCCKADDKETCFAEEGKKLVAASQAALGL
Description: Displacement of radiolabeled warfarin from human serum albumin site 1 in phosphate buffer at pH 7.4 at 100 uM by fluorescence spectroscopy

[8] = biological target: T3, human serum albumin site 2 (Homo sapiens, UniProt P02768); assay: in vitro; conditions: pH 7.4, probe dansylsarcosine
T3 sequence (P02768 whole entry): as above
Description: Displacement of radiolabeled dansylsarcosine from human serum albumin site 2 in phosphate buffer at pH 7.4 at 100 uM by fluorescence spectroscopy

[9] = biological target: T3, human serum albumin site 2; assay: in vitro; conditions: fatty acid containing human serum albumin, pH 7.4, probe dansylsarcosine
Description: Displacement of radiolabeled dansylsarcosine from fatty acid containing human serum albumin site 2 in phosphate buffer at pH 7.4 at 12 uM by fluorescence spectroscopy

[10] = biological target: T2, human serum albumin site 1; assay: in vitro; conditions: fatty acid containing human serum albumin, pH 7.4, probe warfarin
Description: Displacement of radiolabeled warfarin from fatty acid containing human serum albumin site 1 in phosphate buffer at pH 7.4 at 12 uM by fluorescence spectroscopy

[11] = biological target: T2, human serum albumin site 1; assay: in vitro; conditions: fatty acid-free human serum albumin, pH 7.4, probe warfarin
Description: Displacement of radiolabeled warfarin from fatty acid-free human serum albumin site 1 in phosphate buffer at pH 7.4 at 12 uM by fluorescence spectroscopy

[12] = biological target: T3, human serum albumin site 2; assay: in vitro; conditions: fatty acid-free human serum albumin, pH 7.4, probe dansylsarcosine
Description: Displacement of radiolabeled dansylsarcosine from fatty acid-free human serum albumin site 2 in phosphate buffer at pH 7.4 at 12 uM by fluorescence spectroscopy

[13] = biological target: T1, Albumin; assay: Binding affinity to human serum albumin by equilibrium dialysis; format: ADME; conditions: isolated protein
[14] = biological target: T2, human serum albumin site 1; assay: Displacement of […] warfarin from human serum albumin site 1 in phosphate buffer at pH 7.4 at 4 uM by fluorescence spectroscopy; conditions: pH 7.4, probe warfarin, read-out: Activity
[15] = biological target: T3, human serum albumin site 2; assay: Displacement of […] dansylsarcosine from human serum albumin site 2 in phosphate buffer at pH 7.4 at 4 uM by fluorescence spectroscopy; conditions: pH 7.4, probe dansylsarcosine, read-out: Activity

T1 sequence (P02768 whole entry): as above

SMILES | inhibition at 12 µM [9] [%] | inhibition at 12 µM [10] [%] | inhibition at 12 µM [11] [%] | inhibition at 12 µM [12] [%] | other results
O=C(O)C[C@@H]1c2ccccc2C[C@H]1NC(=O)c1cc2cc(F)ccc2[nH]1 |  |  |  |  | log Ks [1]: 5.97; logD [2]: 1.26; logP [3]: 4.71; log Ks [4]: 6.11; pKa [5]: 3.95; solubility at 24 h [6]: 1930 µM (≈ 680 µg/mL)
O=C(O)CCC[C@@H]1c2ccccc2C[C@H]1NC(=O)c1cc2cc(F)ccc2[nH]1 |  |  |  |  | log Ks [1]: 5.41; logD [2]: 1.95; logP [3]: 5.11; log Ks [4]: 5.41; pKa [5]: 4.24; solubility at 24 h [6]: 86 µM (≈ 32.7 µg/mL)
CC(=O)Nc1nc(C)c(-c2cnc(F)c(NS(=O)(=O)c3sc(C)nc3C)c2)s1 |  |  |  |  | log Ks [1]: 5.88; inhibition at 100 µM [7]: 6%; inhibition at 100 µM [8]: 7%; log Ks [4]: 5.62; pKa [5]: 4.71; solubility at 24 h [6]: > 1700 µM
CC(=O)CC(c1ccc([N+](=O)[O-])cc1)c1c(O)c2ccccc2oc1=O (stereo not given) [ACENOCOUMAROL] | 39 | 54.6 | 49.8 | 12.5 | 
NS(=O)(=O)c1cc2c(cc1Cl)N=CNS2(=O)=O [CHLOROTHIAZIDE] | 18.8 | 16 | 28.9 | 8 | 
CCCNC(=O)NS(=O)(=O)c1ccc(Cl)cc1 [CHLORPROPAMIDE] | 26 | 18.5 | 19.2 | 28.5 | 
O=C1CN=C(c2ccccc2Cl)c2cc([N+](=O)[O-])ccc2N1 [CLONAZEPAM] | 19.5 | 3.8 | 0 | 16.2 | 
Cc1onc(-c2ccccc2Cl)c1C(=O)N[C@@H]1C(=O)N2[C@@H]1SC(C)(C)[C@@H]2C(=O)O [CLOXACILLIN] | 18.1 | 5.7 | 0 | 24.1 | 
CN(C)c1cccc2c(S(=O)(=O)N(C)CC(=O)O)cccc12 [DANSYLSARCOSINE] |  |  |  |  | log Ks [13]: 5.39
O=c1oc2ccccc2c(O)c1Cc1c(O)c2ccccc2oc1=O [DICUMAROL] | 19.8 | 10.5 | 86.4 | 88.8 | 
O=C(O)CCC(=O)c1ccc(-c2ccccc2)cc1 [FENBUFEN] | 66.2 | 0 | 0 | 70 | 
O=C(O)c1ccccc1Nc1cccc(C(F)(F)F)c1 [FLUFENAMIC ACID] | 91.2 | 68.6 | 48.6 | 95.8 | log Ks [13]: 6.68; inhibition at 4 µM [14]: 24%; inhibition at 4 µM [15]: 73%
CCN(CC)CCN1C(=O)CN=C(c2ccccc2F)c2cc(Cl)ccc21 [FLURAZEPAM] | 2.7 | 6.3 | 0 | 4.3 | log Ks [13]: 3.38
NS(=O)(=O)c1cc(C(=O)O)c(NCc2ccco2)cc1Cl [FUROSEMIDE] | 49 | 47.3 | 36.2 | 19.2 | 
COc1ccc(Cl)cc1C(=O)NCCc1ccc(S(=O)(=O)NC(=O)NC2CCCCC2)cc1 [GLYBURIDE] | 62.2 | 50.7 | 28.6 | 33.9 | solubility at 24 h [6]: 11 µM (≈ 5.43 µg/mL)
Cc1cc(NC(=O)C2=C(O)c3ccccc3S(=O)(=O)N2C)no1 [ISOXICAM] | 32.6 | 38 | 51.7 | 33.1 | 
COc1ccc2cc([C@H](C)C(=O)O)ccc2c1 [NAPROXEN] | 79.9 | 38.8 | 24.7 | 91.3 | 
O=C1NC(=O)C(c2ccccc2)(c2ccccc2)N1 [PHENYTOIN] | 18.8 | 9.3 | 4 | 0 | 
CC(C)NCC(O)COc1cccc2[nH]ccc12 (stereo not given) [PINDOLOL] | 9.5 | 0 | 0 | 0.2 | log Ks [13]: 2.65
CN1C(C(=O)Nc2ccccn2)=C(O)c2ccccc2S1(=O)=O [PIROXICAM] | 44.8 | 53.5 | 6.7 | 45.5 | 
O=C1C(CC[S+]([O-])c2ccccc2)C(=O)N(c2ccccc2)N1c1ccccc1 (stereo not given) [SULFINPYRAZONE] | 34.2 | 44.1 | 35.2 | 18.6 | 
CC/C(=C(\c1ccccc1)c1ccc(OCCN(C)C)cc1)c1ccccc1 [TAMOXIFEN] | 62.2 | 0 | 0 | 16.3 | 
CN1C(C(=O)Nc2ccccn2)=C(O)c2sccc2S1(=O)=O [TENOXICAM] | 38.5 | 61.7 | 52.3 | 27.4 | 
N[C@@H](Cc1c[nH]c2ccccc12)C(=O)O [TRYPTOPHAN] | 15.1 | 0 | 0 | 15.3 | 
